Laboratory results: patent US20240358693A1, “METHODS OF TREATING PAIN” (Aisa Pharma, Inc., priority 2023, published 2024)

Test system: participants with SSc-RP
Experiment: Scleroderma Health Assessment Questionnaire (SHAQ): disability indices and visual analog scales
Format: in vivo, human
Description: The standard, validated, patient reported outcome measures tool for SSc patients, the Scleroderma Health Assessment Questionnaire (SHAQ), will be used to assess the participant qualify of life. Details are attached in the Appendix. The participant quality of life will be scored, and a disability index calculated for each questionnaire completed by the patient at Screening and each in-clinic visit. The absolute change in participant quality of life from baseline to the end of each dosing period will be calculated similar to frequency data as before.
The SHAQ includes a Raynaud's VAS, which will be reported at screening and each in-clinic visit. The absolute change in Raynaud-VAS, assessed by the participants response to the SHAQ question ‘In the past 7 days, how much have your Raynaud's interfered with your daily activities?’ at baseline and the end of each dosing period will be calculated similar to frequency data as before.
The SHAQ is used to calculate a Disability Index to assess the participant qualify of life. The eight categories assessed by the Disability Index are 1) dressing and grooming, 2) arising, 3) eating, 4) walking, 5) hygiene, 6) reach, 7) grip, and 8) common daily activities. For each of these categories, patients report the amount of difficulty they have in performing two or three specific activities.
There are four possible responses for the Disability Index questions: • Without any difficulty=0 • With some difficulty=1 • With much difficulty=2 • Unable to do=3. • The highest score reported by the patient for any component question of the eight categories determines the score for that category. • If a component question is left blank or the response is too ambiguous to assign a score, then the score for that category is determined by the remaining completed question(s). • If all component questions are blank or if more than one answer is given, then follow up with the respondent is required. • If the respondent's mark is between the response columns, then move it to the closest one. If it's directly between the two, move it to the higher one.
Each of the disability items on the SHAQ has a companion aids/devices variable that is used to record what type(s) of assistance, if any, the participant uses for his/her usual activities. These variables (see below) are coded as follows: • 0=No assistance is needed. • 1=A special device is used by the patient in his/her usual activities. • 2=The patient usually needs help from another person. • 3=The patient usually needs BOTH a special device AND help from another person.
The scoring variables and scoring rules permit the computation of two disability indices, the Standard Disability Index and the Alternative Disability Index.
This question results in a new set of category scores that are computed by adjusting the score for each category, if necessary, based on the patient's use of an aid or device or assistance for that category. If either devices and/or help from another person are checked for a category, the score is set to “2”, unless the score is already “3” (i.e., scores of “0” or “1” are increased to “2”). For example, if the highest score for the dressing category is “1”, and the patient says they use a device for dressing, the computed category score would be “2”. The sum of the computed categories scores is then calculated and divided by the number of categories answered. This gives a score in the 0 to 3 range.
The aid and device variables are not used to calculate the alternative disability index; it is calculated by adding the scores for each of the categories and dividing by the number of categories answered. This gives a score in the 0 to 3 range.
The standard, validated, patient reported outcome measures tool for SSc patients, the SHAQ, was collected at the time points specified in the study schedules (FIG. 2 and FIGS. 4A and 4B) to assess the participant's quality of life. The SHAQ included a Raynaud's VAS that will also be reported separately.

[1] = Any Cilnidipine (N = 14), Day 12, Modified ITT, SSc patients, Part A
[2] = Any Cilnidipine (N = 14), Day 12, Modified ITT, SSc patients, Part A, Subject 01-110 Day 12 score excluded
[3] = Any Cilnidipine (N = 17), Day 12, PP Population Part A, SSc patients
[4] = Any Cilnidipine (N = 17), PP Population Part A, SSc patients
[5] = Baseline, Cilnidipine 10 mg (N = 4), Patients with Diagnosis of SSc, PP Population Part A

## COCCOC(=O)C1=C(C)NC(C)=C(C(=O)OC/C=C/c2ccccc2)C1c1cccc([N+](=O)[O-])c1 (stereo not shown) [Cilnidipine, cilnidipine]
20 mg
  SHAQ VAS- Breathing problems Change: −0.83
  SHAQ VAS- Raynaud's Change: −1.27
  SHAQ VAS- overall disease severity Change: −1.63
  SHAQ VAS-Pain: −1.1
[1]
  SHAQ Alternative Disability Index: Change from Baseline, Mean: −0.016
  SHAQ Alternative Disability Index: Change from Baseline, Median: −0.031
  SHAQ Alternative Disability Index: In-Clinic Visit (Day 12), Mean: 0.430
  SHAQ Alternative Disability Index: In-Clinic Visit (Day 12), Median: 0.250
  SHAQ Alternative Disability Index: Percent Change from Baseline, Mean: 17.01%
  SHAQ Alternative Disability Index: Percent Change from Baseline, Median: −11.11%
  SHAQ Standard Disability Index: Change from Baseline, Mean: −0.050
  SHAQ Standard Disability Index: Change from Baseline, Median: 0.000
  SHAQ Standard Disability Index: In-Clinic Visit (Day 12), Mean: 0.521
  SHAQ Standard Disability Index: In-Clinic Visit (Day 12), Median: 0.250
  SHAQ Standard Disability Index: Percent Change from Baseline, Mean: 2.96%
  SHAQ Standard Disability Index: Percent Change from Baseline, Median: 0.00%
  SHAQ Visual Analogue Scale - Finger Ulcers: Change from Baseline, Mean: −0.623
  SHAQ Visual Analogue Scale - Finger Ulcers: Change from Baseline, Median: −0.100
  SHAQ Visual Analogue Scale - Finger Ulcers: In-Clinic Visit (Day 12), Mean: 0.900
  SHAQ Visual Analogue Scale - Finger Ulcers: In-Clinic Visit (Day 12), Median: 0.200
  SHAQ Visual Analogue Scale - Finger Ulcers: Percent Change from Baseline, Mean: −33.91%
  SHAQ Visual Analogue Scale - Finger Ulcers: Percent Change from Baseline, Median: −36.11%
  SHAQ Visual Analogue Scale - Intestinal Problems: Change from Baseline, Mean: −0.404
  SHAQ Visual Analogue Scale - Intestinal Problems: Change from Baseline, Median: 0.000
  SHAQ Visual Analogue Scale - Intestinal Problems: In-Clinic Visit (Day 12), Mean: 1.225
  SHAQ Visual Analogue Scale - Intestinal Problems: In-Clinic Visit (Day 12), Median: 0.650
  SHAQ Visual Analogue Scale - Intestinal Problems: Percent Change from Baseline, Mean: 0.28%
  SHAQ Visual Analogue Scale - Intestinal Problems: Percent Change from Baseline, Median: −10.00%
  SHAQ Visual Analogue Scale - Overall Disease Severity: Change from Baseline, Mean: −0.904
  SHAQ Visual Analogue Scale - Overall Disease Severity: Change from Baseline, Median: −1.300
  SHAQ Visual Analogue Scale - Overall Disease Severity: In-Clinic Visit (Day 12), Mean: 2.146
  SHAQ Visual Analogue Scale - Overall Disease Severity: In-Clinic Visit (Day 12), Median: 1.300
  SHAQ Visual Analogue Scale - Overall Disease Severity: Percent Change from Baseline, Mean: −30.92%
  SHAQ Visual Analogue Scale - Overall Disease Severity: Percent Change from Baseline, Median: −41.67%
  SHAQ Visual Analogue Scale - Pain: Change from Baseline, Mean: −0.492
  SHAQ Visual Analogue Scale - Pain: Change from Baseline, Median: −0.500
  SHAQ Visual Analogue Scale - Pain: In-Clinic Visit (Day 12), Mean: 2.236
  SHAQ Visual Analogue Scale - Pain: In-Clinic Visit (Day 12), Median: 2.150
  SHAQ Visual Analogue Scale - Pain: Percent Change from Baseline, Mean: −23.84%
  SHAQ Visual Analogue Scale - Pain: Percent Change from Baseline, Median: −21.87%
  SHAQ Visual Analogue Scale - Raynaud's: Change from Baseline, Mean: −0.538
  SHAQ Visual Analogue Scale - Raynaud's: Change from Baseline, Median: −0.300
  SHAQ Visual Analogue Scale - Raynaud's: In-Clinic Visit (Day 12), Mean: 1.798
  SHAQ Visual Analogue Scale - Raynaud's: In-Clinic Visit (Day 12), Median: 1.250
  SHAQ Visual Analogue Scale - Raynaud's: Percent Change from Baseline, Mean: −18.26%
  SHAQ Visual Analogue Scale - Raynaud's: Percent Change from Baseline, Median: −33.33%
[2]
  SHAQ Visual Analogue Scale - Breathing Problems: Change from Baseline, Mean: −0.015
  SHAQ Visual Analogue Scale - Breathing Problems: Change from Baseline, Median: 0.000
  SHAQ Visual Analogue Scale - Breathing Problems: In-Clinic Visit (Day 12), Mean: 1.515
  SHAQ Visual Analogue Scale - Breathing Problems: In-Clinic Visit (Day 12), Median: 0.400
  SHAQ Visual Analogue Scale - Breathing Problems: Percent Change from Baseline, Mean: 51.98%
  SHAQ Visual Analogue Scale - Breathing Problems: Percent Change from Baseline, Median: −21.33%
[3]
  SHAQ Standard Disability Index, Change from Baseline, Mean: −0.041
  SHAQ Standard Disability Index, Change from Baseline, Median: 0.000
  SHAQ Standard Disability Index, Percent Change from Baseline, Mean: 3.27%
  SHAQ Standard Disability Index, Percent Change from Baseline, Median: 0.00%
[4]
  SHAQ Standard Disability Index, In-Clinic Visit (Day 12), Mean: 0.539
  SHAQ Standard Disability Index, In-Clinic Visit (Day 12), Median: 0.250
[5]
  SHAQ Alternative Disability Index, Mean: 0.500
  SHAQ Alternative Disability Index, Median: 0.438
  SHAQ Standard Disability Index, Mean: 0.656
